Laboratory results taken from article PMC10017685 (Nature Communications, 2023).
Like-named read-outs stand apart in the source and are kept apart here. Peptide text beside a SMILES is read from it.

Key:
Sheep red blood cells = experiment: Hemolysis assay (HC50); type: cell-based
Protocol: The hemolysis assay was conducted according to the procedure described previously. Sheep red blood cells (Defibrillated Sheep Blood, Graso, Poland) were used. […] Then the solution of RBCs was added to each well (100 μL with a 4% concentration of erythrocytes (v/v). The control wells for 0 and 100% hemolysis were also prepared: RBCs suspended in PBS and 1% of Triton-X 100, respectively. After that the plates were incubated for 60 min at 37 °C and then centrifuged at 800 × g for 10 min at 4 °C (Sorvall ST 16R Centrifuge, Thermo Scientific). The supernatant was carefully […] to new microtiter plates and the release of hemoglobin was measured at 590 nm (Multiskan™ GO Microplate Spectrophotometer, Thermo Scientific). Hemolysis for each concentration was calculated as the percentage of control with 100% hemolysis. All experiments were conducted in triplicate. The final values of HC50 were computed using ic50.tk tool.

E. coli ATCC 25922 = system: E. coli ATCC 25922; set-up: method as in DBAASP; conditions: origin dbaasp_ecoli; ref DBAASP; cited from earlier work
human erythrocytes = system: human erythrocytes; set-up: method as in DBAASP; conditions: cited from earlier work
[1] = toxicity class label 1 or 0, meaning of the labels not given, DBAASP HC50 data, human erythrocytes, ref DBAASP

Compound	Class (dedicated toxicity dataset used for toxicity classifier evaluation) (human erythrocytes; [1])	further results
CC[C@H](C)[C@H](NC(=O)[C@H](Cc1ccccc1)NC(=O)[C@H](CCCCN)NC(=O)[C@H](CC(N)=O)NC(=O)[C@H](CC(C)C)NC(=O)[C@H](CCC(N)=O)NC(=O)CN)C(=O)N[C@@H](CCCCN)C(=O)N[C@@H](CCCCN)C(=O)N[C@@H](C)C(=O)N[C@@H](CCC(N)=O)C(=O)N[C@@H](CCCNC(=N)N)C(=O)N[C@@H](CCCCN)C(=O)N[C@@H](Cc1ccccc1)C(=O)N[C@@H](Cc1c[nH]cn1)C(=O)N[C@@H](CCC(=O)O)C(=O)N[C@@H](CCCCN)C(=O)N[C@@H](Cc1ccccc1)C(=O)N[C@@H](C)C(=O)N[C@@H](CCCCN)C(N)=O [GQ20] (H-GQLNKFIKKAQRKFHEKFAK-NH2)		HC50 (Sheep red blood cells): > 512 µg/mL; HC50 (Sheep red blood cells; red cells of sheep): >512 µg/mL
CC[C@H](C)[C@H](N)C(=O)NCC(=O)N[C@@H](CCCCN)C(=O)N[C@@H](CCC(=O)O)C(=O)N[C@@H](Cc1ccccc1)C(=O)N[C@@H](CCCCN)C(=O)N[C@@H](CCCNC(=N)N)C(=O)N[C@H](C(=O)N[C@H](C(=O)N[C@@H](CCC(=O)O)C(=O)N[C@@H](CCCNC(=N)N)C(=O)N[C@H](C(=O)N[C@@H](CCCCN)C(=O)N[C@@H](CCCNC(=N)N)C(=O)N[C@@H](Cc1ccccc1)C(=O)N[C@@H](CC(C)C)C(=O)N[C@@H](CCCNC(=N)N)C(=O)N[C@@H](CCC(=O)O)C(=O)N[C@@H](CC(C)C)C(=O)N[C@H](C(=O)N[C@@H](CCCNC(=N)N)C(=O)N1CCC[C@H]1C(=O)N[C@@H](CC(C)C)C(=O)N[C@@H](CCCNC(=N)N)C(N)=O)C(C)C)[C@@H](C)CC)C(C)C)[C@@H](C)CC [OP-145] (H-IGKEFKRIVERIKRFLRELVRPLR-NH2)		HC50 (Sheep red blood cells): > 512 µg/mL; HC50 (Sheep red blood cells; red cells of sheep): >512 µg/mL
CC[C@H](C)[C@H](N)C(=O)N[C@@H](CC(C)C)C(=O)N[C@@H](CCCNC(=N)N)C(=O)N[C@@H](Cc1c[nH]c2ccccc12)C(=O)N1CCC[C@H]1C(=O)N[C@@H](Cc1c[nH]c2ccccc12)C(=O)N[C@@H](Cc1c[nH]c2ccccc12)C(=O)N1CCC[C@H]1C(=O)N[C@@H](Cc1c[nH]c2ccccc12)C(=O)N[C@@H](CCCNC(=N)N)C(=O)N[C@@H](CCCNC(=N)N)C(=O)N[C@@H](CCCCN)C(N)=O [Omiganan] (H-ILRWPWWPWRRK-NH2)		HC50 (Sheep red blood cells): > 512 µg/mL; HC50 (Sheep red blood cells; red cells of sheep): >512 µg/mL
CC[C@H](C)[C@H](NC(=O)CN)C(=O)NCC(=O)N[C@@H](CCCCN)C(=O)N[C@@H](Cc1ccccc1)C(=O)N[C@@H](CC(C)C)C(=O)N[C@@H](CCCCN)C(=O)N[C@@H](CCCCN)C(=O)N[C@@H](C)C(=O)N[C@@H](CCCCN)C(=O)N[C@@H](CCCCN)C(=O)N[C@@H](Cc1ccccc1)C(=O)NCC(=O)N[C@@H](CCCCN)C(=O)N[C@@H](C)C(=O)N[C@@H](Cc1ccccc1)C(=O)N[C@H](C(=O)N[C@@H](CCCCN)C(=O)N[C@H](C(=O)N[C@@H](CC(C)C)C(=O)N[C@@H](CCCCN)C(=O)N[C@@H](CCCCN)C(N)=O)[C@@H](C)CC)C(C)C [Pexiganan] (H-GIGKFLKKAKKFGKAFVKILKK-NH2)		HC50 (Sheep red blood cells): > 512 µg/mL; HC50 (Sheep red blood cells; red cells of sheep): >512 µg/mL
CC[C@H](C)[C@H](NC(=O)[C@H](CCCCN)NC(=O)[C@H](CC(N)=O)NC(=O)[C@@H](NC(=O)[C@@H](NC(=O)[C@H](CCCCN)NC(=O)[C@@H](NC(=O)[C@H](C)NC(=O)[C@@H](NC(=O)[C@H](Cc1c[nH]cn1)NC(=O)CNC(=O)[C@H](C)NC(=O)[C@H](CC(C)C)NC(=O)[C@H](CC(=O)O)NC(=O)[C@H](CCCCN)NC(=O)[C@H](C)NC(=O)[C@H](C)NC(=O)CNC(=O)[C@H](CCCCN)NC(=O)[C@H](CC(C)C)NC(=O)[C@@H](NC(=O)[C@H](CC(=O)O)NC(=O)[C@H](CC(C)C)NC(=O)[C@@H](NC(=O)CN)C(C)C)[C@@H](C)CC)C(C)C)[C@@H](C)O)C(C)C)[C@@H](C)CC)C(N)=O [Syphaxin] (H-GVLDILKGAAKDLAGHVATKVINKI-NH2)		HC50 (Sheep red blood cells): > 512 µg/mL; HC50 (Sheep red blood cells; red cells of sheep): >512 µg/mL
GLLSLSLGKLL		Class (activity against E. coli ATCC 25922 in dedicated activity dataset) (E. coli ATCC 25922): 1 (positive (active) examples are peptides selected from DBAASP with experimentally verified MIC≤ 101.5≃ 32 against E. coli ATCC 25922)
KDRPKKPGLCPLIWWLIIKVG		Class (activity against E. coli ATCC 25922 in dedicated activity dataset) (E. coli ATCC 25922): 1 (positive (active) examples are peptides selected from DBAASP with experimentally verified MIC≤ 101.5≃ 32 against E. coli ATCC 25922)
KWCFRVCARGICYRRCR		Class (activity against E. coli ATCC 25922 in dedicated activity dataset) (E. coli ATCC 25922): 1 (positive (active) examples are peptides selected from DBAASP with experimentally verified MIC≤ 101.5≃ 32 against E. coli ATCC 25922)
SKVWRHWRRFWHRAHRKK [DBAASP_8105]	0	
SKVWRHWRRFWHRAHRKL [DBAASP_14980]	0	
SKVWRHWRRFWHRAHRLH [DBAASP_9101]	0	
SYERKINRHFKTLKKNLKKK [DBAASP_13931]	0	
TIAMRAINNYRWRSKNQNTFLR [DBAASP_6544]	1	
VCKRWKKWKRKWKKWCV [DBAASP_16449]	0	
VKKFAWWWAFLKK [DBAASP_11303]	0	
VKKFAWWWPFLKK [DBAASP_11304]	0	
VKKFPWWWAFLKK [DBAASP_11305]	0	
VKKFPWWWPFLKK [DBAASP_5136]	0	
VKRFKKFFRKFKKFV [DBAASP_16446]	0	
VKRFKKFFRKFKKSV [DBAASP_8772]	0	

Compound	Class (dedicated toxicity dataset used for toxicity classifier evaluation) (human erythrocytes; [1])	further results
VKRFKKFFRKLKKSV [DBAASP_4328]	0	
VKRWKKFWRKWKKWW [DBAASP_8774]	0	
VKRWKKWFRKWKKWV [DBAASP_16447]	0	
VKRWKKWKRKWKKWV [DBAASP_16448]	0	
VKRWKKWRWKWKKWV [DBAASP_8775]		Class (dedicated toxicity dataset used for toxicity classifier evaluation) (human erythrocytes): 0
VKRWKKWWRKLKKSV [DBAASP_8773]	0	
VKWRWKKWRWKWKWKV [DBAASP_8776]	0	
VKWRWKWKWRWKWKWKV [DBAASP_8777]	0	
VQLRIRVAVIRA [DBAASP_7109]	0	
VQWRIRVAVIRK [DBAASP_7680]	0	
VRRFAWWWAFLRR [DBAASP_5137]	0	
VRRFAWWWPFLRR [DBAASP_5142]	0	
VRRFPAAAPFLRR [DBAASP_14271]	0	
VRRFPWAWPFLRR [DBAASP_14266]	0	
VRRFPWWAPFLRR [DBAASP_14267]	0	
VRRFPWWYPFLRR [DBAASP_14261]	0	
VRRFPWYWPFLRR [DBAASP_14260]	0	
VRRFPWYYPFLRR [DBAASP_14263]	0	
VRRFPYWWPFLRR [DBAASP_14259]	0	
VRRFPYWYPFLRR [DBAASP_14264]	0	

Compound	Class (dedicated toxicity dataset used for toxicity classifier evaluation) (human erythrocytes; [1])	further results
VRRFPYYWPFLRR [DBAASP_14262]	0	
WCRRYRVLVRGVLVRYRRCW [DBAASP_13507]	0	
WIRRIKKWIRRVHK [DBAASP_10626]	0	
WKIFKLKLRMLW [DBAASP_13717]	1	
WKKIWSKIKKLLK [DBAASP_7155]	0	
WKKWWKKWWKKW [DBAASP_10848]	0	
WKRRIKIWKKIR [DBAASP_10625]	0	
WLRRIGKGVKIIGGAALDHL [DBAASP_5344]	0	
WLRRIKAWLRRIKA [DBAASP_7164]	0	
WLRRIKAWLRRKRK [DBAASP_10627]	0	
WRRRRRRRR [DBAASP_8812]	0	
WRRRYRRWRRRRRWRRRPRR [DBAASP_10396]	0	
WRWLRRIW [DBAASP_10631]	0	
WWRLRRIW [DBAASP_10632]	0	
WWWLKKIW [DBAASP_9820]	0	
WWWLRRIR [DBAASP_10635]	0	
WWWLRRIW [DBAASP_10629]	0	
WWWLRRRW [DBAASP_10634]	0	
WWWRRRIW [DBAASP_10633]	0	
YLRLIRYMAKMI [DBAASP_17183]	0	
